The text below walks through data of ChEMBL document CHEMBL1153227, “2,3,5-Trisubstituted pyridines as selective AKT inhibitors. Part II: Improved drug-like properties and kinase selectivity from azaindazoles” (Bioorg Med Chem Lett, 2010).

The target of one data set is Cytochrome P450 3A4 (Homo sapiens, UniProt P08684). As to the kind of experiment: Inhibition of CYP3A4. It is filed as ADME.
The next data set concerns BT-474. Put plainly: Cytotoxicity against human BT474 cells. The format is functional, cell-based.
Data set [1] in a line: Protein binding in SCID mouse plasma. It is filed as ADME, cell-free. The note with it: read-out: PPB (converted).
Data set [2] in a line: Solubility of the compound. It is filed as physicochemical.
In data set [3] the test system is Mus musculus. Put plainly: Inhibition of GSK3-beta phosphorylation in human BT474 cell xenografted SCID mouse at 12.5 mg/kg, ip. The format is functional, organism-based. Also noted: dose 12.5 mg/kg. The settings on record: BT-474. In general terms: In xenograft studies the graft and the host belong to different species.
For the next data set, the system named is HFF. Put plainly: Cytotoxicity against HFF cells. The format is cell-based. The settings on record: Homo sapiens.
The nature of data set [4]: Drug level in tumor of human BT474 cells xenografted in SCID mouse at 50 mg/kg, ip. It is filed as ADME, organism-based, Neoplasm, BT-474. On the set-up: dose 50 mg/kg, route intraperitoneal. The settings on record: in vivo.
Data set [5] concerns Mus musculus. As to the kind of experiment: Inhibition of GSK3-beta phosphorylation in human BT474 cell xenografted SCID mouse at 50 mg/kg, ip. It is filed as functional. The note with it: BT-474, ip, route intraperitoneal.
In data set [6] the target is RAC-beta serine/threonine-protein kinase (Homo sapiens, UniProt P31751). Put plainly: Inhibition of AKT2.
Chain of RAC-beta serine/threonine-protein kinase (P31751 whole entry): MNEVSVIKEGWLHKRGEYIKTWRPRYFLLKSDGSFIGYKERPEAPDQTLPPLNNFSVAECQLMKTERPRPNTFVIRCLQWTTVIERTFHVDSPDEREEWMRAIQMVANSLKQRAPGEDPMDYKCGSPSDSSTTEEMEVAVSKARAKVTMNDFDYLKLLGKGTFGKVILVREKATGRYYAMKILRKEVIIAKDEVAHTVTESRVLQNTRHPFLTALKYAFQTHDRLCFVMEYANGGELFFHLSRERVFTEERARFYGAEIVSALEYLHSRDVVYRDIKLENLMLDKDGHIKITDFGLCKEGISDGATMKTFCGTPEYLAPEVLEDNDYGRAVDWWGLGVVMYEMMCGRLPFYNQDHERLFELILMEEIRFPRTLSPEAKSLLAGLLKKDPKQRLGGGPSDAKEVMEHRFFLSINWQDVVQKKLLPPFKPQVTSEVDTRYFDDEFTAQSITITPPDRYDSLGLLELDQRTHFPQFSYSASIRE
The subject of a further data set is LNCaP. Put plainly: Cytotoxicity against human LNCAP cells. It is filed as functional, cell-based.
Data set [7] addresses RAC-alpha serine/threonine-protein kinase (Homo sapiens, UniProt P31749). Put plainly: Inhibition of AKT1.
For data set [8], the target named is RAC-gamma serine/threonine-protein kinase (Homo sapiens, UniProt Q9Y243). Put plainly: Inhibition of AKT3.
Chain of RAC-gamma serine/threonine-protein kinase (Q9Y243 whole entry): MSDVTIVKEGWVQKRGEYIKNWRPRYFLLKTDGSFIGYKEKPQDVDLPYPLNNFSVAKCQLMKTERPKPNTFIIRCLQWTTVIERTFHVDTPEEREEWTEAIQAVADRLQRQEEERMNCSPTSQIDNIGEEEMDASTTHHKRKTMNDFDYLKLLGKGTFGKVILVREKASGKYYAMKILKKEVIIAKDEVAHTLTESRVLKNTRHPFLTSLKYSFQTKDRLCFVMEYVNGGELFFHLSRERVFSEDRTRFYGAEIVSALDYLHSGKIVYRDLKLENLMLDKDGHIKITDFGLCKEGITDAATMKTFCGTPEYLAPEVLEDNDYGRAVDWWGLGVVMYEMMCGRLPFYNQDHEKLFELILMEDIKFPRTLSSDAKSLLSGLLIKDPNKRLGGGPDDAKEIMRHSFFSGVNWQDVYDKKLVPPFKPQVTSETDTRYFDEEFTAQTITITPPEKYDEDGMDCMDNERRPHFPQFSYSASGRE
For data set [9], the system named is Mus musculus. As to the kind of experiment: Inhibition of GSK3-beta phosphorylation in human BT474 cell xenografted SCID mouse at 25 mg/kg, ip. The note with it: BT-474. The format is functional, organism-based. Also noted: dose 25 mg/kg.
The nature of data set [10]: Inhibition of RSK.
Data set [11] deals with Serine/threonine-protein kinase PAK 1 (Homo sapiens, UniProt Q13153). As to the kind of experiment: Inhibition of PAK1.
Data set [12] in a line: Inhibition of PKA.
Data set [13] concerns the target Ribosomal protein S6 kinase beta-1 (Homo sapiens, UniProt P23443). Put plainly: Inhibition of P70S6K.
In another data set the target is Cytochrome P450 2C19 (Homo sapiens, UniProt P33261). Put plainly: Inhibition of CYP2C19. The format is ADME.
Chain of Cytochrome P450 2C19 (P33261 whole entry): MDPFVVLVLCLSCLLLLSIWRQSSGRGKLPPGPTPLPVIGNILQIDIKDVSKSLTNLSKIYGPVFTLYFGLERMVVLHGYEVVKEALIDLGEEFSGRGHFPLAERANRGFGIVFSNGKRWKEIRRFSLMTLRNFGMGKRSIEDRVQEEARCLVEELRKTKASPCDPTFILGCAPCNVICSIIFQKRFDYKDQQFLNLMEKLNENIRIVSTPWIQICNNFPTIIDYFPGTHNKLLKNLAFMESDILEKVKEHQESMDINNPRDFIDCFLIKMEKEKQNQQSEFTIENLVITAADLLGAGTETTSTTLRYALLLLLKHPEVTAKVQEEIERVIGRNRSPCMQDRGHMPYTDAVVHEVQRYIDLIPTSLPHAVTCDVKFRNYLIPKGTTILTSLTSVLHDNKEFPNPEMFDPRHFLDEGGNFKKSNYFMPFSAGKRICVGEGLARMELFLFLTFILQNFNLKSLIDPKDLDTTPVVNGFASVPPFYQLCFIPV
In the next data set the target is Cytochrome P450 2D6 (Homo sapiens, UniProt P10635). As to the kind of experiment: Inhibition of CYP2D6. The format is ADME.
Chain of Cytochrome P450 2D6 (P10635 whole entry): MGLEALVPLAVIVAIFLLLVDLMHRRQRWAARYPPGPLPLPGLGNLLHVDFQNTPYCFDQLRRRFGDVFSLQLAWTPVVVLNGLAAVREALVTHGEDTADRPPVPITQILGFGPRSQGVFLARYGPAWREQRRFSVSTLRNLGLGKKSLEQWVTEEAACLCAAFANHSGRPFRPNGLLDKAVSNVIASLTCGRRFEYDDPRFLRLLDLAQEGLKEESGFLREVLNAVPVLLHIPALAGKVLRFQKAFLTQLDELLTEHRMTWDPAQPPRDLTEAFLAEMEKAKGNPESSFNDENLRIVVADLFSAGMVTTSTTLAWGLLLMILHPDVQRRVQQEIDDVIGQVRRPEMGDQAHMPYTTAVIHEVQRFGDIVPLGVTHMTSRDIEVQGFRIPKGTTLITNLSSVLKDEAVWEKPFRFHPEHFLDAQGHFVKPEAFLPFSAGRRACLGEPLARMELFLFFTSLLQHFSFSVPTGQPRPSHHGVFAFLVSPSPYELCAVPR
In the next data set the target is T1, Cytochrome P450 1A2 (Homo sapiens, UniProt P05177).
T1 sequence (P05177 whole entry): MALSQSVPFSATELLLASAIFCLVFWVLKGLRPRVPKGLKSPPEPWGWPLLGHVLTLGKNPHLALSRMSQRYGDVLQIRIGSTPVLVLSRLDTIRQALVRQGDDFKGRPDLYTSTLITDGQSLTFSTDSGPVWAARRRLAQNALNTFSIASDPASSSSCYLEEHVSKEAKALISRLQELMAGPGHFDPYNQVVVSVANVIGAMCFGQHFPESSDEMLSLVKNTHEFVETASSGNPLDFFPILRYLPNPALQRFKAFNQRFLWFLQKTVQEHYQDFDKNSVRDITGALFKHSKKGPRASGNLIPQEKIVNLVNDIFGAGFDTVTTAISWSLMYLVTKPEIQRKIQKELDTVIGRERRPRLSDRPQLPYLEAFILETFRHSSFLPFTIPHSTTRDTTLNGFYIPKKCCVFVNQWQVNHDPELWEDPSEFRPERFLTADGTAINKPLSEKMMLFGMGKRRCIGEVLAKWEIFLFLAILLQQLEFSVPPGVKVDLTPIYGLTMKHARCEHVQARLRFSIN
As to the kind of experiment: Inhibition of CYP1A2. It is filed as ADME.

The target of data set [14] is Rho-associated protein kinase 1 (Homo sapiens, UniProt Q13464). Put plainly: Inhibition of ROCK1.
Chain of Rho-associated protein kinase 1 (Q13464 whole entry): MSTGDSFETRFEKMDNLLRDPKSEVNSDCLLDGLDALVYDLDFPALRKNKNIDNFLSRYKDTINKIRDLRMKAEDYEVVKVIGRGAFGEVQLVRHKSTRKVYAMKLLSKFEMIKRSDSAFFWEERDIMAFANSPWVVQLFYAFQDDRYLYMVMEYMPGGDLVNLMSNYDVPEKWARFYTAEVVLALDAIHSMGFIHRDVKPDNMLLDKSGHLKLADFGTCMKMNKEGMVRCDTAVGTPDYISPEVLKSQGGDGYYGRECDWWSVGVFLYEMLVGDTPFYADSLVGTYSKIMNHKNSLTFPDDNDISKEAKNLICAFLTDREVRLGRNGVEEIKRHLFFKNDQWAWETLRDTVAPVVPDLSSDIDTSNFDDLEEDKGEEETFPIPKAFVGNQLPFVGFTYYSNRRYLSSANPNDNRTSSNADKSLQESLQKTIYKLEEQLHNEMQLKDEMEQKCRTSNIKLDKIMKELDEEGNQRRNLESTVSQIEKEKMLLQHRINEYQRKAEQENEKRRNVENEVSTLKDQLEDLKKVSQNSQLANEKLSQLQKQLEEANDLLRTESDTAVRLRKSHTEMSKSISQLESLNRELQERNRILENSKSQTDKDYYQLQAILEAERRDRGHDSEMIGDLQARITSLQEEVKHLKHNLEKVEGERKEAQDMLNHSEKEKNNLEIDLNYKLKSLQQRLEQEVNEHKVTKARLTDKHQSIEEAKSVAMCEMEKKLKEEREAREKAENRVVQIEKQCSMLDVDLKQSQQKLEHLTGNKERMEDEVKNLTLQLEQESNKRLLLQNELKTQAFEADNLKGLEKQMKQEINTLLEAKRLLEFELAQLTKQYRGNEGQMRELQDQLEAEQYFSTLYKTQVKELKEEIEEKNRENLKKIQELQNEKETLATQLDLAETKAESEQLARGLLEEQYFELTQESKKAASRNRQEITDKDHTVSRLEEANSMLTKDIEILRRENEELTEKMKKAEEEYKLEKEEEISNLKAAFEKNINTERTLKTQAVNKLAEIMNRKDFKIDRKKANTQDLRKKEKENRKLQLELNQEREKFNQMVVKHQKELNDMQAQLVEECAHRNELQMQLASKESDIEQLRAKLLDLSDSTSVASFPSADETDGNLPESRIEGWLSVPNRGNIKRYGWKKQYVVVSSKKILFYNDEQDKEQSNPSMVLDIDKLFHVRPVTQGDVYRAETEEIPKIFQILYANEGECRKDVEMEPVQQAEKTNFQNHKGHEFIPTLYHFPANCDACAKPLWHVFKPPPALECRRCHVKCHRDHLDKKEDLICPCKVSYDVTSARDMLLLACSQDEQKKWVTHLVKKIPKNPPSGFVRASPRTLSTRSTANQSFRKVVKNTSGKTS

Each structure is given as a SMILES string. In brackets after ≈: the same amount, converted by molar mass. Activity calls are given as the source filed them. No cut-off for these calls is given here.

Chain of RAC-alpha serine/threonine-protein kinase (P31749 whole entry): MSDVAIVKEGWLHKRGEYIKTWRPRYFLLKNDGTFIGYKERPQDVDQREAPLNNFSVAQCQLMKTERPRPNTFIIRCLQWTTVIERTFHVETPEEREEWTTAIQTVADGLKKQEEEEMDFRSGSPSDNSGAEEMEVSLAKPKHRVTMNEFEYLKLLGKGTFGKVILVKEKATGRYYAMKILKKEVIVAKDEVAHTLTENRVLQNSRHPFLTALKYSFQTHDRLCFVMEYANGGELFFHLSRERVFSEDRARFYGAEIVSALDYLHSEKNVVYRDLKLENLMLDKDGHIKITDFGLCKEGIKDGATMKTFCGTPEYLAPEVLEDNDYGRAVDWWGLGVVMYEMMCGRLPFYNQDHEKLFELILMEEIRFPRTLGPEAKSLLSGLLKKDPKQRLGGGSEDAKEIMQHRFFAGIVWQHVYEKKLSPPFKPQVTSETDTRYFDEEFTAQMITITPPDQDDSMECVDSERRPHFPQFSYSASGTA
Chain of Cytochrome P450 3A4 (P08684 whole entry): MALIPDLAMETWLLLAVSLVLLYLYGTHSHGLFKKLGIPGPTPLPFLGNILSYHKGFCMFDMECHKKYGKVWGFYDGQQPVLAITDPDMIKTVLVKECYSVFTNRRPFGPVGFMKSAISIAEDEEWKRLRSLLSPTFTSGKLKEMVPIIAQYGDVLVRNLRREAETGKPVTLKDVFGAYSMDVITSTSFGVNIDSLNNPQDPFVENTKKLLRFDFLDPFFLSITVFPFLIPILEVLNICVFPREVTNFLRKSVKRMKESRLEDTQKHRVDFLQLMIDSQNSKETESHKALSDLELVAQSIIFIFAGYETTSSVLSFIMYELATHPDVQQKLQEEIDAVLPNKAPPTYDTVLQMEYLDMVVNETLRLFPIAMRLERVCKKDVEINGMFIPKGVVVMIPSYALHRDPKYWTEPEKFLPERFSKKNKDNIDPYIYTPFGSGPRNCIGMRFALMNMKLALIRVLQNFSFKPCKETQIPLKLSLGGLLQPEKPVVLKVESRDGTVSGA
Chain of Ribosomal protein S6 kinase beta-1 (P23443 whole entry): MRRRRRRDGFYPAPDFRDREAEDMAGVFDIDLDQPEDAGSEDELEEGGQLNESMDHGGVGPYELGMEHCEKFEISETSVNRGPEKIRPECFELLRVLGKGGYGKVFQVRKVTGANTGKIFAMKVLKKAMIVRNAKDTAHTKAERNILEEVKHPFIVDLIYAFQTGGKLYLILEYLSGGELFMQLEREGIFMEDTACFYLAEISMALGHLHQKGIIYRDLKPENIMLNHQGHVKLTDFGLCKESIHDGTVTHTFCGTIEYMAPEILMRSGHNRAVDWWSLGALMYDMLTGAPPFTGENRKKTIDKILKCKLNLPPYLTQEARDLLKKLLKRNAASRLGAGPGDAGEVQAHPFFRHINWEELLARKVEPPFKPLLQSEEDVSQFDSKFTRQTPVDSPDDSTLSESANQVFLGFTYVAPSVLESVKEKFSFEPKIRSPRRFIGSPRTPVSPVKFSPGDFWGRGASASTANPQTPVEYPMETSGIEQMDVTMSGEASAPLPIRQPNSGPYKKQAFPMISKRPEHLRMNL

As usually defined, the IC50 is the point on the concentration scale where inhibition reaches its midpoint. High values mean lower potency, low ones higher potency. Usually solubility stands for the dissolved amount per volume that the medium holds. Lower therefore signals little dissolved substance. What is called inhibition in vivo is the percentage by which the read-out fell short of the control. Read a low inhibition in vivo as little suppression. As to `Cc1n[nH]c2ncc(-c3cc(OC[C@@H](N)Cc4c[nH]c5ccccc45)cnc3-c3ccoc3)nc12`, the IC50 came to 400 nM against Cytochrome P450 3A4; 370 nM in the data set with BT-474; 14300 nM in the data set with HFF; 39 nM in data set [6]; 96 nM in the data set with LNCaP; 2 nM in [7]. The IC50 in [8] is 10 nM. For the same compound, in data set [1], the fraction unbound is 0.091. This compound gave a solubility in data set [2] of 200 µM (≈ 93.1 µg/mL). For the same compound, the result in the data set with Mus musculus [3] and in the data set on Mus musculus [9] was inactive. The Drug uptake in [4] is 3798 ng/mL. Testing at 50 mg/kg in the data set on Mus musculus [5] gave an inhibition in vivo of 80%.

In the case of `Cc1[nH]nc2ccc(-c3cc(OC[C@@H](N)Cc4c[nH]c5ccccc45)cnc3-c3ccoc3)cc12`, the IC50 at Cytochrome P450 3A4 worked out at 50 nM; with BT-474, 340 nM; in [10], 25 nM; in data set [11], 31 nM; in data set [12], 1 nM; in [13], 7 nM. Moreover, the IC50 came out at 5500 nM with HFF; 2000 nM against Cytochrome P450 2C19; 5000 nM against Cytochrome P450 2D6; 12 nM in data set [6]; 50000 nM on Cytochrome P450 1A2; 1580 nM in [14]. In addition, the values for the IC50 (in the data set on LNCaP; in data set [7]; in data set [8]) were 190 nM, 1 nM and 1 nM, respectively. For the same compound, the fraction unbound in data set [1] was 0.041. The compound also yielded a solubility in data set [2] of 52 µM (≈ 24.1 µg/mL).

As for `Cc1n[nH]c2ccc(-c3cc(OC[C@@H](N)Cc4c[nH]c5ccccc45)cnc3-c3ccoc3)nc12`, the IC50 on Cytochrome P450 3A4 was 100 nM; with BT-474 it was 2100 nM; in the data set on HFF, 30000 nM; in the data set with LNCaP, 830 nM; in data set [7] it was 12 nM. For the same compound, the fraction unbound in [1] is 0.069. In addition, the solubility in data set [2] amounted to 225 µM (≈ 105 µg/mL).

As for `Cc1n[nH]c2ncc(-c3cc(OC[C@@H](N)Cc4c[nH]c5ccccc45)cnc3-c3ccoc3)cc12`, the half-inhibitory concentration (IC50) is 200 nM against Cytochrome P450 3A4; 300 nM in the data set on BT-474; 6600 nM in the data set with HFF; 85 nM in the data set on LNCaP; 1 nM in data set [7]. The fraction unbound in data set [1] is 0.047. The concentration in solution in data set [2] (solubility) was 108 µM (≈ 50.2 µg/mL).

Regarding `Cc1n[nH]c2cnc(-c3cc(OC[C@@H](N)Cc4c[nH]c5ccccc45)cnc3-c3ccoc3)cc12`, the concentration for half-maximal inhibition (IC50) against Cytochrome P450 3A4 amounted to 16 nM; with BT-474, 750 nM; in the data set with HFF, 6500 nM; in data set [6], 6 nM; in the data set with LNCaP it was 230 nM; in [7] it was 1 nM. This compound yielded a 50% inhibitory concentration (IC50) in data set [8] of 1 nM. Moreover, in data set [1], the fraction unbound was 0.057.

Regarding `Cc1n[nH]c2cnc(-c3cc(OC[C@@H](N)Cc4c[nH]c5ccccc45)cnc3-c3ccoc3)nc12`, the IC50 was determined as 1300 nM against Cytochrome P450 3A4; 640 nM in the data set with BT-474; 30000 nM in the data set with HFF; 31 nM in [6]; 540 nM with LNCaP; 1 nM in [7]. The same compound gave an IC50 in [8] of 15 nM. For the same compound, in data set [1], the fraction unbound was 0.155. The concentration in solution in data set [2] (solubility) was 205 µM (≈ 95.4 µg/mL).
